No end group written: not given here.
Assays:
Escherichia coli biofilm = experiment: Antibiofilm assay (crystal violet); assay type: cell-based; set-up: unit not given here; conditions: E. coli, 570 nm; for MBIC: biofilm formed in presence of AMPs (prevention); for MBEC: pre-formed biofilm (eradication)
Procedure: (§1) Biofilms of the aforementioned microbes were allowed to form in microtiter plates under respective culture conditions in the absence (eradication) or presence (prevention) of AMPs. After incubation, the culture supernatant was discarded, and each well was gently rinsed to remove planktonic bacteria. Biofilms were fixed with methanol and stained with 0.1% crystal violet for 20 min; then the dye bound to the cells was resolubilized with ethanol, and the absorbance of the solution was evaluated at 570 nm using a microplate reader ([Abouelhassan et al., 2017]).

[1] = test system: Staphylococcus aureus biofilm; experiment: Antibiofilm assay (crystal violet); assay type: cell-based; set-up: unit not given here; conditions: S. aureus, 570 nm; for MBEC: biofilm eradication; for MBIC: biofilm prevention
Procedure: as §1

Candida albicans biofilm = experiment: Antibiofilm assay (crystal violet); assay type: cell-based; conditions: C. albicans, 570 nm; for MBEC: biofilm eradication; for MBIC: biofilm prevention
Procedure: as §1

C. albicans = experiment: In vivo antimicrobial assay, skin infection mouse model; conditions: neutropenic mice, s.c. 100 μl of 1.0 × 10^8 CFU⋅ml^–1 C. albicans; 100 μl AMP at MIC s.c. daily from 12 h post-infection; day 4; vs control
Procedure: (§2) In vivo antimicrobial activities of the designed AMPs were examined in neutropenic mice following subcutaneous inoculation of 100 μl of 1.0 × 10^8 CFU⋅ml^–1 E. coli, S. aureus, or C. albicans ([Lee et al., 2005]). At 12 h post-infection, 100 μl of AMPs at the respective MIC value was applied by subcutaneous injection each day. Mice were sacrificed on day 4, and the infected area was carefully excised and homogenized. The CFU count was determined after overnight incubation of the homogenate aliquots. All animal care and experiments were performed in compliance with institutional and government guidelines and were approved by the Peking Union Medical College Hospital Animal Care and Use Committee.

S. aureus = experiment: as above; conditions: neutropenic mice, s.c. 100 μl of 1.0 × 10^8 CFU⋅ml^–1 S. aureus; 100 μl AMP at MIC s.c. daily from 12 h post-infection; day 4; vs control
Procedure: as §2

E. coli = experiment: as above; conditions: neutropenic mice, s.c. 100 μl of 1.0 × 10^8 CFU⋅ml^–1 E. coli; 100 μl AMP at MIC s.c. daily from 12 h post-infection; day 4; vs control
Procedure: as §2

Substance	MBIC (Escherichia coli biofilm)	MBEC (Escherichia coli biofilm)	MBEC [1]	MBIC [1]	MBEC (Candida albicans biofilm)	MBIC (Candida albicans biofilm)	CFU count in infected skin (C. albicans)	CFU count in infected skin (S. aureus)	CFU count in infected skin (E. coli)
DKLIGSCVWGAVNYTSDCNAECKRRGYKGGHCGSFANVNCWCET (disulfide (positions not given here)) [DefA, designed synthetic butterfly defensin analog]	8	32	16	4					
GCVFYECIARCRQRGYLSGGYCTINGCQCL-NH2 (disulfide (positions not given here)) [DefB, designed synthetic butterfly defensin analog, C-terminally amidated]	8	32	16	2					
GKIPIGAIKKGAKAVGKGLKALNIASTAHDIYSFHHKKKKH [MorA, designed synthetic butterfly moricin analog]	4	8	16	4	16	4	suppress proliferation		
KWKIFKKIEKVGRNIRDGIIKAGPAVQVVGQAATIYKGK [CecB, designed synthetic butterfly cecropin analog]	2	8	16	2	32	16		attenuate growth	attenuate growth

Reference: paper PMC8427292, “Identification and Characterization of Antimicrobial Peptides From Butterflies: An Integrated Bioinformatics and Experimental Study” (Frontiers in Microbiology, 2021)
